Assay results as given in ChEMBL document CHEMBL3301361, “Experimental in vitro DMPK and physicochemical data on a set of publicly disclosed compounds”.

Tests used:
physchem = settings: octan-1-ol/water
in vitro [1] = settings: human
in vitro [2] = settings: hepatocytes

Cc1nccn1CCC(C(N)=O)(c1ccccc1)c1ccccc1 [IMIDAFENACIN]
logD (physchem; pH 7.4, LogD7.4): 1.79
microsomal CLint (in vitro [1]; liver microsomes): < 3 µL/min/mg
hepatocyte CLint (in vitro [2]): 46 µL/min/1e6 cells

O=C(O)[C@H](Cc1ccccc1)N1CCC(CN2CCC(Oc3ccc(CO)c(Cl)c3)CC2)CC1
logD (physchem; pH 7.4, LogD7.4): 0.8
microsomal CLint (in vitro [1]; liver microsomes): < 3 µL/min/mg
hepatocyte CLint (in vitro [2]): 28 µL/min/1e6 cells

Cc1ccccc1NC(=O)CCS(=O)(=O)c1ccc(Br)s1
logD (physchem; pH 7.4, LogD7.4): 2.7
microsomal CLint (in vitro [1]; liver microsomes): 46.8 µL/min/mg
hepatocyte CLint (in vitro [2]): > 150 µL/min/1e6 cells

Oc1nc2c(O)ccc(CCNCCCCCCOCCc3ccccc3)c2s1
logD (physchem; pH 7.4, LogD7.4): 2.21
microsomal CLint (in vitro [1]; microsomes): 29 µL/min/mg
hepatocyte CLint (in vitro [2]): 88 µL/min/1e6 cells

COc1cc(Nc2nc3c(cc2F)ncn3[C@@H](CO)c2ccc(F)cn2)n[nH]1
logD (physchem; pH 7.4, LogD7.4): 2.18
microsomal CLint (in vitro [1]; microsomes): 7.24 µL/min/mg
hepatocyte CLint (in vitro [2]): 27.5 µL/min/1e6 cells

Cc1nc2ncnn2c(O)c1CCOC(=O)c1ccccc1F
logD (physchem; pH 7.4, LogD7.4): 0.99
microsomal CLint (in vitro [1]; liver microsomes): > 150 µL/min/mg
hepatocyte CLint (in vitro [2]): 129 µL/min/1e6 cells

O=C(NCC12CC3CC(CC(C3)C1)C2)c1c(Cl)ccc2nc(N3CCC[C@H](NCCc4nnn[nH]4)C3)ccc12
logD (physchem; pH 7.4, LogD7.4): 3.08
microsomal CLint (in vitro [1]; liver microsomes): 15 µL/min/mg
hepatocyte CLint (in vitro [2]): 13 µL/min/1e6 cells

COCC1=C(C(=O)OC(C)OC(=O)OC(C)C)N2C(=O)[C@@H](NC(=O)/C(=N\OC)c3csc(N)n3)[C@H]2SC1 (some centres undefined) [CEFPODOXIME PROXETIL]
logD (physchem; pH 7.4, LogD7.4): 1.7
microsomal CLint (in vitro [1]; liver microsomes): > 150 µL/min/mg
hepatocyte CLint (in vitro [2]): 115 µL/min/1e6 cells

N#Cc1cccc(NCC(=O)Nc2c(Cl)ccc3nc(N4CC[C@@H](O)C4)ccc23)c1
logD (physchem; pH 7.4, LogD7.4): 2.39
microsomal CLint (in vitro [1]; microsomes): 30 µL/min/mg
hepatocyte CLint (in vitro [2]): 8 µL/min/1e6 cells

O=C(Nc1ncc(F)s1)C(CC1CCOCC1)c1ccc(S(=O)(=O)C2CC2)cc1 (centres undefined)
logD (physchem; pH 7.4, LogD7.4): 3.3
microsomal CLint (in vitro [1]; liver microsomes): 33.1 µL/min/mg
hepatocyte CLint (in vitro [2]): 5.5 µL/min/1e6 cells

Cn1c(=O)c(Oc2ccc(F)cc2F)cc2cnc(NC(CCO)CCO)nc21 [PAMAPIMOD]
logD (physchem; pH 7.4, LogD7.4): 1.5
microsomal CLint (in vitro [1]; microsomes): 4.57 µL/min/mg
hepatocyte CLint (in vitro [2]): < 3 µL/min/1e6 cells

O=c1[nH]c2c(O)ccc([C@@H](O)CNCCSCCCNCCc3cccc(C(F)(F)F)c3)c2s1
logD (physchem; pH 7.4, LogD7.4): 1.21
microsomal CLint (in vitro [1]; liver microsomes): 13 µL/min/mg
hepatocyte CLint (in vitro [2]): 6 µL/min/1e6 cells

CCOc1nc2cccc(C(=O)O)c2n1Cc1ccc(-c2ccccc2-c2nnn[nH]2)cc1
logD (physchem; pH 7.4, LogD7.4): 0.3
microsomal CLint (in vitro [1]; liver microsomes): < 3 µL/min/mg
hepatocyte CLint (in vitro [2]): < 3 µL/min/1e6 cells

CCN(CC)c1ccc2cc(C(C)=O)c(=O)oc2c1
logD (physchem; pH 7.4, LogD7.4): 2
microsomal CLint (in vitro [1]; liver microsomes): 120 µL/min/mg
hepatocyte CLint (in vitro [2]): > 150 µL/min/1e6 cells

Cc1oc(=O)oc1CN1CCN(c2cc3c(cc2F)c(=O)c(C(=O)O)c2n3C(C)S2)CC1 (centres undefined) [PRULIFLOXACIN]
logD (physchem; pH 7.4, LogD7.4): 0.47
microsomal CLint (in vitro [1]; liver microsomes): 15.5 µL/min/mg
hepatocyte CLint (in vitro [2]): 69.2 µL/min/1e6 cells

CCC(CC)NC(=O)c1cnn(-c2ccccc2)c1NS(=O)(=O)c1ccc(-c2cnco2)cc1
logD (physchem; pH 7.4, LogD7.4): 0.8
microsomal CLint (in vitro [1]; liver microsomes): 27 µL/min/mg
hepatocyte CLint (in vitro [2]): 52 µL/min/1e6 cells

O=C(C1CCN(c2nnc(-n3cccc3)s2)CC1)N1CCc2ccccc2C1
logD (physchem; pH 7.4): 3.7
microsomal CLint (in vitro [1]; liver microsomes): 83.2 µL/min/mg
hepatocyte CLint (in vitro [2]): 46.8 µL/min/1e6 cells

O=c1[nH]c2c(O)ccc([C@@H](O)CNCCc3cccc(CN4CCC(c5ccccc5)CC4)c3)c2s1
logD (physchem; pH 7.4, LogD7.4): 1.99
microsomal CLint (in vitro [1]; microsomes): 27 µL/min/mg
hepatocyte CLint (in vitro [2]): 29 µL/min/1e6 cells

CCOC(=O)CN(c1ccccc1C)S(=O)(=O)c1ccc(Cl)cc1
microsomal CLint (in vitro [1]; liver microsomes): 94 µL/min/mg
hepatocyte CLint (in vitro [2]): > 150 µL/min/1e6 cells

Cc1ccc(S(=O)(=O)Nc2c(C(=O)N(C)C3CCCCC3)c(C)nn2-c2ccccc2)cc1
logD (physchem; pH 7.4, LogD7.4): 1.69
microsomal CLint (in vitro [1]; liver microsomes): 53 µL/min/mg
hepatocyte CLint (in vitro [2]): 21 µL/min/1e6 cells

COc1ccc2nc(C)cc(OCC(=O)Nc3ccccc3OC)c2c1
logD (physchem; pH 7.4, LogD7.4): 3.9
microsomal CLint (in vitro [1]; microsomes): 138 µL/min/mg
hepatocyte CLint (in vitro [2]): > 150 µL/min/1e6 cells

O=C(Nc1cc(-c2ccnc(Nc3ccc(F)cc3)c2)ccn1)C1CCOCC1
microsomal CLint (in vitro [1]; microsomes): 6.03 µL/min/mg
hepatocyte CLint (in vitro [2]): > 150 µL/min/1e6 cells

Cc1ccc(NC(=O)c2cccc(N3CCOCC3)c2)cc1NC(=O)c1ccc(OCc2cscn2)cc1
microsomal CLint (in vitro [1]; microsomes): 23 µL/min/mg
hepatocyte CLint (in vitro [2]): 20 µL/min/1e6 cells

Cc1cnc(Nc2ccc(F)cc2Cl)nc1-c1c[nH]c(C(=O)N[C@H](CO)c2cccc(Cl)c2)c1
microsomal CLint (in vitro [1]; microsomes): 25.1 µL/min/mg
hepatocyte CLint (in vitro [2]): 12.9 µL/min/1e6 cells

N#Cc1ccc(C(=O)Nc2ccc(-n3ccnc3)nc2)cc1
microsomal CLint (in vitro [1]; microsomes): 6.31 µL/min/mg
hepatocyte CLint (in vitro [2]): 20.4 µL/min/1e6 cells

Cc1cc(OCC(=O)NCc2ccccc2)c2cc(Br)ccc2n1
microsomal CLint (in vitro [1]; microsomes): 126 µL/min/mg
hepatocyte CLint (in vitro [2]): 51.3 µL/min/1e6 cells

CC1Sc2c(C(=O)O)c(=O)c3cc(F)c(N4CCNCC4)cc3n21 (centres undefined) [ULIFLOXACIN]
microsomal CLint (in vitro [1]; liver microsomes): 13.8 µL/min/mg
hepatocyte CLint (in vitro [2]): < 3 µL/min/1e6 cells

COc1ccc(-c2nc3ccccc3c(=O)[nH]2)cc1
microsomal CLint (in vitro [1]; liver microsomes): > 150 µL/min/mg
hepatocyte CLint (in vitro [2]): > 150 µL/min/1e6 cells

COc1ccc(N(C(C)=O)C(C(=O)NC2CCCC2)c2ccccc2F)c(OC)c1 (centres undefined)
microsomal CLint (in vitro [1]; liver microsomes): > 150 µL/min/mg
hepatocyte CLint (in vitro [2]): > 150 µL/min/1e6 cells

C[C@@H]1CN(c2ccc(F)cc2C(F)(F)F)CCN1S(=O)(=O)c1ccc(C(N)=O)cc1Cl
microsomal CLint (in vitro [1]; liver microsomes): 6.31 µL/min/mg
hepatocyte CLint (in vitro [2]): 63.1 µL/min/1e6 cells

CCc1cccc2c1N(C)Cc1cc3c(cc1-2)OCO3
microsomal CLint (in vitro [1]; liver microsomes): 44.7 µL/min/mg
hepatocyte CLint (in vitro [2]): > 150 µL/min/1e6 cells

O=C(O)Cc1ccccc1N1CCC(CN2CCC(Oc3ccc(Cl)c(Cl)c3)CC2)CC1
microsomal CLint (in vitro [1]; liver microsomes): < 3 µL/min/mg
hepatocyte CLint (in vitro [2]): < 3 µL/min/1e6 cells

CN(CC(=O)N(Cc1ccc(C2CCCCC2)cc1)c1ccc(C(=O)O)c(O)c1)S(=O)(=O)c1c(F)c(F)c(F)c(F)c1F
microsomal CLint (in vitro [1]; microsomes): 129 µL/min/mg
hepatocyte CLint (in vitro [2]): 74.1 µL/min/1e6 cells

N#CC1(NC(=O)[C@@H]2CCCC[C@H]2C(=O)N2CCN(c3nc4ccncc4s3)CC2)CC1
microsomal CLint (in vitro [1]; microsomes): 17.8 µL/min/mg
hepatocyte CLint (in vitro [2]): 6.61 µL/min/1e6 cells

O=C(NS(=O)(=O)c1ccccc1Cl)c1ccc[nH]1
microsomal CLint (in vitro [1]; liver microsomes): < 3 µL/min/mg
hepatocyte CLint (in vitro [2]): 3.31 µL/min/1e6 cells

COc1ccc(C#Cc2ccc([C@@H]3[C@H](CO)N4CCCCN(C(=O)Nc5cccc(F)c5)C[C@@H]34)cc2)cc1
microsomal CLint (in vitro [1]; microsomes): 50.1 µL/min/mg
hepatocyte CLint (in vitro [2]): 18.2 µL/min/1e6 cells

Cn1c(=O)c(-c2c(Cl)cccc2Cl)cc2cnc(Nc3ccc(F)cc3)nc21
microsomal CLint (in vitro [1]; microsomes): 132 µL/min/mg
hepatocyte CLint (in vitro [2]): 6.17 µL/min/1e6 cells

Cc1cc(F)ccc1OC1CCN(CC2CCN([C@@H](Cc3ccc(F)cc3)C(=O)O)CC2)CC1
microsomal CLint (in vitro [1]; liver microsomes): < 3 µL/min/mg
hepatocyte CLint (in vitro [2]): < 3 µL/min/1e6 cells

Cc1ccc(-c2nnc(SCC(=O)N3CCN(c4ccccc4)CC3)o2)cc1
microsomal CLint (in vitro [1]; microsomes): > 150 µL/min/mg
hepatocyte CLint (in vitro [2]): > 150 µL/min/1e6 cells

CCOc1ccc2oc(C(=O)NC(CCSC)c3nc4ncccc4[nH]3)c(C)c2c1 (centres undefined)
microsomal CLint (in vitro [1]; liver microsomes): > 150 µL/min/mg
hepatocyte CLint (in vitro [2]): 46 µL/min/1e6 cells

O=C(c1cccc(Cl)c1Cl)N1CCN(c2ccccn2)CC1
microsomal CLint (in vitro [1]; liver microsomes): > 150 µL/min/mg
hepatocyte CLint (in vitro [2]): > 150 µL/min/1e6 cells

C[C@@H](O)[C@H]1C(=O)N2C(C(=O)O)=C(SC3CN(C4=NCCS4)C3)[C@H](C)[C@H]12 [TEBIPENEM]
microsomal CLint (in vitro [1]; liver microsomes): 23.4 µL/min/mg
hepatocyte CLint (in vitro [2]): 4.79 µL/min/1e6 cells

Cc1c(Sc2ccc(Cl)cc2)c2cc(F)ccc2n1CC(=O)O
microsomal CLint (in vitro [1]; liver microsomes): < 3 µL/min/mg
hepatocyte CLint (in vitro [2]): 34 µL/min/1e6 cells

CC(C)c1ccc(NC(=O)Cn2cnc3c2c(=O)n(C)c(=O)n3C)cc1
microsomal CLint (in vitro [1]; microsomes): 18.2 µL/min/mg
hepatocyte CLint (in vitro [2]): 16.6 µL/min/1e6 cells

O=C(NCc1ccccc1)c1cc(-c2ccco2)on1
microsomal CLint (in vitro [1]; liver microsomes): 70.8 µL/min/mg
hepatocyte CLint (in vitro [2]): 138 µL/min/1e6 cells

C[C@@H](O)[C@H]1C(=O)N2C(C(=O)OCOC(=O)C(C)(C)C)=C(SC3CN(C4=NCCS4)C3)[C@H](C)[C@H]12 [TEBIPENEM PIVOXIL]
microsomal CLint (in vitro [1]; liver microsomes): > 150 µL/min/mg
hepatocyte CLint (in vitro [2]): > 150 µL/min/1e6 cells

Cc1ccc2c(NC[C@](O)(CC(C)(C)c3cc(F)cc4c3OCC4)C(F)(F)F)cccc2n1 [MAPRACORAT]
microsomal CLint (in vitro [1]; liver microsomes): > 150 µL/min/mg
hepatocyte CLint (in vitro [2]): 50.1 µL/min/1e6 cells

Cc1cc(NS(=O)(=O)c2ccc(Cl)cc2)no1
microsomal CLint (in vitro [1]; microsomes): < 3 µL/min/mg
hepatocyte CLint (in vitro [2]): 8.51 µL/min/1e6 cells

CCCCn1c(SCC(=O)Nc2cc(C)on2)nnc1-c1ccco1
microsomal CLint (in vitro [1]; microsomes): > 150 µL/min/mg
hepatocyte CLint (in vitro [2]): > 150 µL/min/1e6 cells

O=CN(O)CCCP(=O)(O)O [FOSMIDOMYCIN]
microsomal CLint (in vitro [1]; liver microsomes): 3.02 µL/min/mg
hepatocyte CLint (in vitro [2]): < 3 µL/min/1e6 cells

CS(=O)(=O)c1ccc(-c2cnc(N)c(C(=O)Nc3ccccc3)n2)cc1
microsomal CLint (in vitro [1]; microsomes): 4.17 µL/min/mg
hepatocyte CLint (in vitro [2]): 19.1 µL/min/1e6 cells

CC(C(=O)O)c1ccc(C(=O)c2cccs2)cc1 (centres undefined) [SUPROFEN]
microsomal CLint (in vitro [1]; microsomes): < 3 µL/min/mg
hepatocyte CLint (in vitro [2]): 16 µL/min/1e6 cells

CCC(NC(=O)Nc1cc(Cl)ccc1Cl)(C(F)(F)F)C(F)(F)F
microsomal CLint (in vitro [1]; liver microsomes): 7.41 µL/min/mg
hepatocyte CLint (in vitro [2]): 22.9 µL/min/1e6 cells

CS(=O)(=O)Nc1ccc(CCOCCCS(=O)(=O)CCNCCc2ccc(O)c3nc(O)sc23)cc1
microsomal CLint (in vitro [1]; liver microsomes): 28 µL/min/mg
hepatocyte CLint (in vitro [2]): 105 µL/min/1e6 cells

CCn1c(SCC(=O)Nc2cccc(C)c2)nnc1-c1ccccc1
microsomal CLint (in vitro [1]; microsomes): > 150 µL/min/mg
hepatocyte CLint (in vitro [2]): > 150 µL/min/1e6 cells

Oc1nc2c(O)ccc(CCNCCOCCCOCCc3ccccc3)c2s1
microsomal CLint (in vitro [1]; liver microsomes): 56 µL/min/mg
hepatocyte CLint (in vitro [2]): > 150 µL/min/1e6 cells

CC(C)CNc1nc(N2CCN(CC3CCCOC3)CC2)ncc1C(=O)NCc1ccccc1 (centres undefined)
microsomal CLint (in vitro [1]; liver microsomes): 95.5 µL/min/mg
hepatocyte CLint (in vitro [2]): 89.1 µL/min/1e6 cells
